Source: patent US5008282A, “Cyclic guanidine derivatives, anti-ulceratives and methods of manufacturing the same” (Kotobuki Seiyaku Co. Ltd., priority 1988, dated 1991)
Counter-ions that a name gives are not always drawn.

Assays:
(H^+, K^+)ATPase = molecular target: T1, (H^+, K^+)ATPase (Sus scrofa, UniProt P19156); experiment: Inhibition of (H^+, K^+)ATPase activities; type: biochemical; settings: pig gastric mucosa ATPase; pH 7.4; 2 mM MgCl2; 10 mM KCl; 37° C; read-out: (H^+,K^+)ATPase IC50 (Concentration of 50% inhibition)
T1 construct: ATPase is prepared from the pig gastric mucosa; from tissue; host or cells: pig gastric mucosa
Experimental: Inhibition of (H^+, K^+)ATPase activities. Inhibition of (H^+, K^+)ATPase activities is determined by the method of F. Fellenius et al., [Nature 290, 159-61, (1981)]. (H^+, K^30 )ATPase is prepared from the pig gastric mucosa and the test compound is incubated with 2 mM of […], 40 mM of tris-buffer (pH 7.4), 2 mM of MgCl2 and 10 mM of KCl at 37° C. Inorganic phosphate occurring by stimulation of ATPase is determined.

[1] = tested on: histamine-stimulated acid secretion; experiment: Inhibitory activities of gastric-acid secretion in the acute fistula rat; type: in vivo; settings: 50 mg/kg oral, histamine.2HCl 10 mg/kg s.c. 4 hours after compound, Male Wistar rats, read-out: Total acid inhibition (inhibitory percent of compounds on histamine-stimulated acid secretion)
Experimental: Inhibitory activities of gastric-acid secretion in the acute fistula rat.
Determination of gastric-acid secretion is performed by the method of Y. Goto et al.(Expenentia 32, 946, (1976)). Male Wistar rats are anesthetized with urethane (1.2 g/kg, i.p.) 2 hours after the oral administration of compounds. A dual polyethylene cannula is introduced into the gastric lumen after ligation of the pylorus and the esophagus. The stomach is rinsed with 5 ml of saline through the gastric cannula at 15 min interval. The acid output during 15 minutes period is titrated with 0.01N NaOH. Histamine.2HCl (10 mg/kg, s.c.) is administered as a secretory agent 4 hours after the administration of compounds.

T1 sequence (P19156 2-1034 limits assumed): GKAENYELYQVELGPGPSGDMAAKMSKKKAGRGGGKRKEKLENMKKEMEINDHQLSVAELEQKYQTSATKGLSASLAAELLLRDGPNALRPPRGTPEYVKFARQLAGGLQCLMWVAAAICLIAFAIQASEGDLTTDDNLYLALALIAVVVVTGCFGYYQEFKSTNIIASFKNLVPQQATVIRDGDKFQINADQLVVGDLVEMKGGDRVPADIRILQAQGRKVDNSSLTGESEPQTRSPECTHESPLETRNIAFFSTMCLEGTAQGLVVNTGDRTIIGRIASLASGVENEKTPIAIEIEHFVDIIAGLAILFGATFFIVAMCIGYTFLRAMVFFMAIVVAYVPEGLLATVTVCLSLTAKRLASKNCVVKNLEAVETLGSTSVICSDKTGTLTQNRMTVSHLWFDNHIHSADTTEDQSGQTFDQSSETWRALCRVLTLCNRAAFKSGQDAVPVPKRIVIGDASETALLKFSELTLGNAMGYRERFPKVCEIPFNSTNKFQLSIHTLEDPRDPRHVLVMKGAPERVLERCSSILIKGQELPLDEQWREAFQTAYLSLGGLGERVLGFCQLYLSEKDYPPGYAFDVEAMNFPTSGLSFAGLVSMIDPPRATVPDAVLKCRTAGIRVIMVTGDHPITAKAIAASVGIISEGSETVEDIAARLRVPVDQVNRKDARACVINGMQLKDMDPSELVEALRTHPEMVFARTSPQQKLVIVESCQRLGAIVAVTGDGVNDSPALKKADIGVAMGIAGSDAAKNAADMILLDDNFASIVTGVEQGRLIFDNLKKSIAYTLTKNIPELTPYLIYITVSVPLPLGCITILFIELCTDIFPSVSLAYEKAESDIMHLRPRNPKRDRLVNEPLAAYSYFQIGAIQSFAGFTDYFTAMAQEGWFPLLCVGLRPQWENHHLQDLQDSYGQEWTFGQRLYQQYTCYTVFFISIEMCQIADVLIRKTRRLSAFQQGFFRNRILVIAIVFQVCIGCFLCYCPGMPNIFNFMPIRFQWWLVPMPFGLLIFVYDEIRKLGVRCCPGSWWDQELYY
T1 sequence (P18434 whole entry partner): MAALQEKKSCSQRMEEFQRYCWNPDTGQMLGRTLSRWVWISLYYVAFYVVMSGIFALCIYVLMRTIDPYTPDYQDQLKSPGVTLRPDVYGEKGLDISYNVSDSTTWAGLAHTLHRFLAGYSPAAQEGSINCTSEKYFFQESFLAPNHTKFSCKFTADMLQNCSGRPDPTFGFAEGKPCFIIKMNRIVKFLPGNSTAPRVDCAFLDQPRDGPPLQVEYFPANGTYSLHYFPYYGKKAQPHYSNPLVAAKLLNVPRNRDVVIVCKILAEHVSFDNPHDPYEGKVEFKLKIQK

| Compound | IC50 ((H^+, K^+)ATPase) | inhibition in vivo at 50 mg/kg [1] |
| --- | --- | --- |
| COCCC(=O)Sc1c(-c2ccccc2)nc2nc3cccccc3n12 [Compound 44, 3-(3-Methoxypropionyl)thio-2-phenyl-cyclohept[d]imidazo[1,2-a]imidazole] | 8.75 µM | 80.7% |
| CCC(=O)Sc1c2ccccn2c2nc3c(n12)CCCCC3 [Compound 21, 13-(Propionyl)thio-pyrido[1',2':3,4]imidazo[1,2-a]-7,8,9,10,11pentahydro-cycloheptimidazole fumarate] | 18.1 µM | 64.9% |
| C=CC(=O)Sc1c(-c2ccccc2)nc2nc3cccccc3n12 [Compound 37, 3-(Acryloyl)thio-2-phenyl-cyclohept[d]imidazo[1,2-a]imidazole] | 2.2 µM | 51.5% |
| c1ccn2c(c1)c(SCCN1CCCCC1)n1c3c(nc12)CCCCC3 [Compound 23, 13-[2-(1-Piperidino)ethyl]thio-pyrido[1',2':3,4]imidazo[1,2-a]7,8,9,10,11-pentahydro-cycloheptimidazole] | 91.3 µM | – |
| COCCC(=O)Sc1c(C)nc2nc3cccccc3n12 [Compound 75, 3-(3-MethoxyPropionyl)thio-2-methyl-cyclohept[d]imidazo[1,2-a]imidazole] | 55.1 µM | – |
| C/C=C/C(=O)Sc1c(C)nc2nc3cccccc3n12 [Compound 69, 3-(Crotonoyl)thio-2-methyl-cyclohept[d]imidazo[1,2-a]imidazole] | 22.7 µM | 83.5% |
| Cc1nc2nc3cccccc3n2c1SC(=O)c1ccccc1 [Compound 77, 3-(Benzoyl)thio-2-methyl-cyclohept[d]imidazo[1,2-a]imidazole] | – | 82.5% |
| Cc1nc2nc3cccccc3n2c1SC(=O)c1ccccn1 [Compound 76, 3-(Picolinoyl)thio-2-methyl-cyclohept[d]imidazo[1,2-a]imidazole] | – | 83.7% |
| CC#CCSc1c2ccccn2c2nc3c(n12)CCCCC3 [Compound 19, 13-(2-Butynyl)thio-pyrido[1',2':3,4]imidazo[1,2-a]-7,8,9,10,11pentahydro-cycloheptimidazole] | 47.3 µM | – |
| CCC(=O)Sc1c(-c2ccccc2)nc2nc3cccccc3n12 [Compound 35, 3-(Propionyl)thio-2-phenyl-cyclohept[d]imidazo[1,2-a]imidazole] | 10.5 µM | 54% |
| Cc1nc2nc3cccccc3n2c1SC(=O)C(C)C [Compound 81, 3-(isobutyryl)thio-2-methyl-cyclohept[d]imidazo[1,2-a]imidazole] | 2.79 µM | 79.8% |
| Cc1nc2nc3cccccc3n2c1SC(=O)C(C)(C)C [Compound 68, 3-(Pivaloyl)thio-2-methyl-cyclohept[d]imidazo[1,2-a]imidazole] | – | 73.9% |
| C#CCSc1c2ccccn2c2nc3c(n12)CCCCC3 [Compound 18] | 3.06 µM | – |
| CC(=O)Sc1c(C)nc2nc3cccccc3n12 [Compound 65, 3-(Acetyl)thio-2-methyl-cyclohept[d]imidazo[1,2-a]imidazole] | – | 68.8% |
| COCC(=O)Sc1c(-c2ccccc2)nc2nc3cccccc3n12 [Compound 43, 3-(Methoxyacetyl)thio-2-phenyl-cyclohept[d]imidazo[1,2-a]imidazole] | 2.23 µM | 53.8% |
| CCC(=O)Sc1c(C)nc2nc3cccccc3n12 [Compound 66, 3-(Propionyl)thio-2-methyl-cyclohept[d]imidazo[1,2-a]imidazole] | 17.5 µM | 63.7% |
| CCC(=O)Sc1c(-c2ccccc2)nc2n(C)c3ccccc3n12 [Compound 87, 3-(Propionyl)thio-2-phenyl-9-methyl-9H-imidazo[1,2-a]benzimidazole] | 25.8 µM | 53.8% |
| CCCCC(=O)Sc1c(-c2ccccc2)nc2nc3ccc(C(C)C)ccc3n12 [Compound 53, 3-(valeryl)thio-2-phenyl-7-isopropyl-cyclohept[d]imidazo[1,2-a]imidazole] | 1.95 µM | 73.7% |
| C=CCSc1c2ccccn2c2nc3c(n12)CCCCC3 [Compound 16, 13-(2-Propenyl)thio-pyrido[1',2':3,4]imidazo[1,2-a]-7,8,9,10,11pentahydro-cycloheptimidazole] | 16.5 µM | – |
| CC(=O)Sc1c(-c2ccc(Cl)cc2)nc2nc3cccccc3n12 [Compound 57, 3-(acetyl)thio-2-(4-chlorophenyl)-cyclohept[d]imidazo[1,2-a]imidazole] | 0.79 µM | – |
| C/C=C/C(=O)Sc1c(-c2ccccc2)nc2nc3cccccc3n12 [Compound 38, 3-(Crotonoyl)thio-2-phenyl-cyclohept[d]imidazo[1,2-a]imidazole] | 13.3 µM | 63.4% |
| COCC(=O)Sc1c(C)nc2nc3cccccc3n12 [Compound 72, 3-(Methoxyacetyl)thio-2-methyl-cyclohept[d]imidazo[1,2-a]imidazole] | 5.9 µM | – |
| Cn1ccn2c(SC(=O)COc3ccccc3)c(-c3ccccc3)nc12 [Compound 92, 5-(Phenoxyacetyl)thio-6-phenyl-1-methyl-1H-imidazo[1,2-a]imidazole] | 16 µM | 65.6% |
| CC(=O)Sc1c(-c2ccc(F)cc2)nc2nc3cccccc3n12 [Compound 55, 3-(acetyl)thio-(4-fluorophenyl)-cyclohept[d]imidazo[1,2-a]imidazole] | 1.4 µM | – |
| O=C(Sc1c(-c2ccccc2)nc2nc3cccccc3n12)c1ccccn1 [Compound 48, 3-(Picolinoyl)thio-2-phenyl-cyclohept[d]imidazo[1,2-a]imidazole] | 2.72 µM | – |
| CC(=O)Sc1c(-c2ccccc2)nc2nc3cccccc3n12 [Compound 34, 3-(Acetyl)thio-2-phenyl-cyclohept[d]imidazo[1,2-a]imidazole] | 2.47 µM | 76.6% |
| CCCCC(=O)Sc1c(C)nc2nc3cccccc3n12 [Compound 82, 3-(valeryl)thio-2-methyl-cyclohept [d]imidazo[1,2-a]imidazole] | – | 81.2% |
